{"source": "patent US20140323418A1", "about": "“SELECTIVE KINASE INHIBITORS” (PORTOLA PHARMACEUTICALS, INC., priority 2011, published 2014)", "data": [{"molecular_target": "T1, full length active recombinant SYK enzyme (Homo sapiens, UniProt P43405)", "T1 construct": "full length active recombinant SYK enzyme (Millipore, Calif.); purchased Millipore", "assay": "Inhibition of Syk tyrosine phosphorylation activity (LANCE TR-FRET kinase assay)", "format": "biochemical", "conditions": "1 nM SYK, 550 nM substrate, 100 μM ATP, 1 hour room temperature", "units": {"IC50": "nM"}, "values": [{"smiles": "CNC(=O)[C@@H]1CC[C@@H](Nc2ncc(C(N)=O)c(Nc3cccc(C)c3)n2)[C@@H](N)C1", "note": "(racemic) [Example 189, 2-((1R,2S,4R)-2-amino-4-(methylcarbamoyl)cyclohexylamino)-4-(m-tolylamino)pyrimidine-5-carboxamide]", "IC50": "1 to 10"}, {"smiles": "Cc1cccc(Nc2nc(N[C@H]3CN[C@H](C(=O)N(C)C)C3)ncc2C(N)=O)c1", "note": "[Example 219, 2-(((3R,5S)-5-(dimethylcarbamoyl)pyrrolidin-3-yl)amino)-4-(m-tolylamino)pyrimidine-5-carboxamide]", "IC50": "> 1000"}, {"smiles": "CC(C)(C(=O)O)c1cccc(Nc2nc(N[C@@H]3CCCC[C@@H]3N)ncc2C(N)=O)c1", "note": "[Example 203]", "IC50": "100 to 1000"}, {"smiles": "NC(=O)c1cnc(N[C@H]2CN[C@H](C(=O)O)C2)nc1Nc1cnc2ccccc2c1", "note": "[Example 217, (2S,4R)-4-((5-carbamoyl-4-(quinolin-3-ylamino)pyrimidin-2-yl)amino)pyrrolidine-2-carboxylic acid]", "IC50": "> 1000"}, {"smiles": "NC(=O)c1cnc(N[C@@H]2CCNC2)nc1Nc1ccc2ncccc2c1", "note": "[Example 214, (R)-2-(pyrrolidin-3-ylamino)-4-(quinolin-6-ylamino)pyrimidine-5-carboxamide]", "IC50": "10 to 100"}, {"smiles": "CCN1CCc2c(Nc3nc(N[C@@H](CN)C4CC4)ncc3C(N)=O)cccc21", "note": "[Example 99, (R)-2-(2-amino-1-cyclopropylethylamino)-4-(1-ethylindolin-4-ylamino)pyrimidine-5-carboxamide]", "IC50": "10 to 100"}, {"smiles": "CCO[C@@H]1CCCC[C@H]1Nc1ncc(C(N)=O)c(Nc2cccc(-n3nccn3)c2)n1", "note": "[Example 6]", "IC50": "100 to 1000"}, {"smiles": "COc1ccc(Nc2ncc(C(N)=O)c(N[C@H]3CC[C@H](N)CC3)n2)cc1", "note": "[Example 245, 4-(trans-4-aminocyclohexylamino)-2-(4-methoxyphenylamino)pyrimidine-5-carboxamide]", "IC50": "100 to 1000"}, {"smiles": "CCn1ccc2c(Nc3nc(NCC(C)C)ncc3C(N)=O)cccc21", "note": "[Example 116, 4-(1-ethyl-1H-indol-4-ylamino)-2-(isobutylamino)pyrimidine-5-carboxamide]", "IC50": "100 to 1000"}, {"smiles": "CC(C)[C@@H](Nc1ncc(C(N)=O)c(Nc2cccc(F)c2)n1)C1(N)CC1", "note": "[Example 159, (R)-2-(1-(1-aminocyclopropyl)-2-methylpropylamino)-4-(3-fluorophenylamino)pyrimidine-5-carboxamide]", "IC50": "1 to 10"}, {"smiles": "NC(=O)c1cnc(N[C@@H]2CCNC2)nc1Nc1cccc(-n2nccn2)c1", "note": "[Example 221, (R)-4-(3-(2H-1,2,3-triazol-2-yl)phenyeamino)-2-(pyrrolidin-3-ylamino)pyrimidine-5-carboxamide]", "IC50": "1 to 10"}, {"smiles": "NC(=O)c1cnc(N[C@@H]2CCCC[C@@H]2N)nc1Nc1cncc(F)c1", "note": "[Example 45]", "IC50": "10 to 100"}, {"smiles": "NC(=O)c1cnc(N[C@H]2[C@@H](N)CCCC2(F)F)nc1Nc1cnn2ccccc12", "note": "[Example 37, 2-(((1S,6S)-6-amino-2,2-difluorocyclohexyl)amino)-4-(pyrazolo[1,5-a]pyridin-3-ylamino)pyrimidine-5-carboxamide]", "IC50": "10 to 100"}, {"smiles": "CC[C@@H](Nc1ncc(C(N)=O)c(Nc2ccc(-c3cncs3)cc2)n1)C(N)=O", "note": "[Example 58, (R)-2-((1-amino-1-oxobutan-2-yl)amino)-4-((4-(thiazol-5-yl)phenyl)amino)pyrimidine-5-carboxamide]", "IC50": "10 to 100"}, {"smiles": "CN1CCc2c(Nc3nc(NC[C@@H](N)CC(F)F)ncc3C(N)=O)cccc21", "note": "[Example 98, (S)-2-(2-amino-4,4-difluorobutylamino)-4-(1-methylindolin-4-ylamino)pyrimidine-5-carboxamide]", "IC50": "10 to 100"}, {"smiles": "Cn1ncc2c(Nc3nc(N[C@H](C4CC4)C4(N)CC4)ncc3C(N)=O)cccc21", "note": "[Example 162, (R)-2-(1-(1-aminocyclopropyl)(cyclopropyl)methylamino)-4-(1-methyl-1H-indazol-4-ylamino)pyrimidine-5-carboxamide]", "IC50": "1 to 10"}, {"smiles": "Cc1cccc(Nc2nc(NC[C@@H](N)CC(F)F)ncc2C(N)=O)c1", "note": "[Example 78, (S)-4-(m-toluidino)-2-(2-amino-4,4-difluorobutylamino)pyrimidine-5-carboxamide]", "IC50": "10 to 100"}, {"smiles": "NC(=O)c1cnc(N[C@@H]2CCCC[C@@H]2N)nc1Nc1cc(-n2cccn2)cc(-n2cccn2)c1", "note": "[Example 249, 2-(((1R,2S)-2-aminocyclohexyl)amino)-4-((3,5-di(1H-pyrazol-1-yl)phenyl)amino)pyrimidine-5-carboxamide]", "IC50": "1 to 10"}, {"smiles": "NC(=O)c1cnc(N[C@@H]2CCOC[C@@H]2N)nc1Nc1ccc2ncsc2c1", "note": "[Example 181, 2-((3R,4R)-3-aminotetrahydro-2H-pyran-4-ylamino)-4-(benzo[d]thiazol-6-ylamino)pyrimidine-5-carboxamide]", "IC50": "10 to 100"}, {"smiles": "Cc1cc(C)cc(Nc2nc(N[C@@H]3CCCC(F)(F)[C@@H]3N)ncc2C(N)=O)c1", "note": "[Example 33, 2-(((1R,2R)-2-amino-3,3-difluorocyclohexyl)amino)-4-((3,5-dimethylphenyl)amino)pyrimidine-5-carboxamide]", "IC50": "100 to 1000"}, {"smiles": "NC(=O)c1cnc(N[C@@H]2CCCC[C@@H]2n2ccnn2)nc1Nc1cccc(-n2nccn2)c1", "note": "[Example 9, 2-((1R,2S)-2-(1H-1,2,3-triazol-1-yl)cyclohexylamino)-4-(3-(2H-1,2,3-triazol-2-yl)phenylamino)pyrimidine-5-carboxamide]", "IC50": "100 to 1000"}, {"smiles": "CCc1c(C)c2c(Nc3nc(N[C@@H]4CCCC[C@@H]4N)ncc3C(N)=O)cccc2n1C", "note": "[Example 100, 2-((1R,2S)-2-aminocyclohexylamino)-4-(2-ethyl-1,3-dimethyl-1H-indol-4-ylamino)pyrimidine-5-carboxamide]", "IC50": "100 to 1000"}, {"smiles": "NC(=O)c1cnc(N[C@@H]2CCC[C@H](F)[C@@H]2N)nc1Nc1cccc(-n2cccn2)c1", "note": "[Example 238, 4-(3-(1H-pyrazol-1-yl)phenylamino)-2-((1R,2R,3S)-2-amino-3-fluorocyclohexylamino)pyrimidine-5-carboxamide]", "IC50": "10 to 100"}, {"smiles": "NC(=O)c1cnc(Nc2ccc(Cl)cc2)nc1N[C@H]1CC[C@@H](N)CC1", "note": "[Example 186, 4-(4-aminocyclohexylamino)-2-(4-chlorophenylamino)pyrimidine-5-carboxamide]", "IC50": "10 to 100"}, {"smiles": "NC(=O)c1cnc(N[C@@H]2CCCC[C@@H]2N)nc1Nc1cc(Br)cc(-n2nccn2)c1", "note": "[Example 21, 2-((1R,2S)-2-aminocyclohexylamino)-4-(3-bromo-5-(2H-1,2,3-triazol-2-yl)phenylamino)pyrimidine-5-carboxamide]", "IC50": "10 to 100"}, {"smiles": "NC(=O)c1cnc(N[C@@H](C2CC2)C2(N)CC2)nc1Nc1cccc(-c2ncccn2)c1", "note": "[Example 134, (S)-2-(1-(1-aminocyclopropyl)(cyclopropyl)methylamino)-4-(3-(pyrimidin-2-yl)phenylamino)pyrimidine-5-carboxamide]", "IC50": "100 to 1000"}, {"smiles": "CC[C@@H](Nc1ncc(C(N)=O)c(Nc2cnc3ccccc3c2)n1)C1(N)CC1", "note": "[Example 154, (R)-2-(1-(1-aminocyclopropyl)propylamino)-4-(quinolin-3-ylamino)pyrimidine-5-carboxamide]", "IC50": "1 to 10"}, {"smiles": "Cc1ccc(Nc2ncc(C(N)=O)c(N[C@H]3CC[C@H](N)CC3)n2)cc1", "note": "[Example 244, 4-(trans-4-aminocyclohexylamino)-2-(p-tolylamino)pyrimidine-5-carboxamide]", "IC50": "100 to 1000"}, {"smiles": "NC(=O)c1cnc(N[C@@H]2CCOC[C@@H]2N)nc1Nc1cnc2ccccc2c1", "note": "[Example 177, 2-((3R,4R)-3-aminotetrahydro-2H-pyran-4-ylamino)-4-(quinolin-3-ylamino)pyrimidine-5-carboxamide]", "IC50": "10 to 100"}, {"smiles": "NC(=O)c1cnc(N[C@H](C2CC2)C2(N)CC2)nc1Nc1ccc2scnc2c1", "note": "[Example 166, (R)-2-(1-(1-aminocyclopropyl)(cyclopropyl)methylamino)-4-(benzo[d]thiazol-5-ylamino)pyrimidine-5-carboxamide]", "IC50": "10 to 100"}, {"smiles": "Cc1cccc(Nc2nc(N[C@@H]3CC[C@@H](C(=O)N4CCCC4)C[C@@H]3N)ncc2C(N)=O)c1", "note": "(racemic) [Example 193, 2-((1R,2S,4R)-2-amino-4-(pyrrolidine-1-carbonyl)cyclohexylamino)-4-(m-tolylamino)pyrimidine-5-carboxamide]", "IC50": "10 to 100"}, {"smiles": "CC[C@@H](Nc1ncc(C(N)=O)c(Nc2ccc3cccnc3c2)n1)C(N)=O", "note": "[Example 57, (R)-2-((1-amino-1-oxobutan-2-yl)amino)-4-(quinolin-7-ylamino)pyrimidine-5-carboxamide]", "IC50": "10 to 100"}, {"smiles": "NC(=O)c1cnc(N[C@@H]2CCCC(F)(F)[C@@H]2N)nc1Nc1ccc2scnc2c1", "note": "[Example 30, 2-(((1R,2R)-2-amino-3,3-difluorocyclohexyl)amino)-4-(benzo[d]thiazol-5-ylamino)pyrimidine-5-carboxamide]", "IC50": "100 to 1000"}, {"smiles": "N#Cc1ccc(Nc2nc(N[C@@H]3CCOC[C@@H]3N)ncc2C(N)=O)cc1", "note": "[Example 54, 2-(((3R,4R)-3-aminotetrahydro-2H-pyran-4-yl)amino)-4-((4-cyanophenyl)amino)pyrimidine-5-carboxamide]", "IC50": "100 to 1000"}, {"smiles": "CCn1ccc2c(Nc3nc(NC(C)C)ncc3C(N)=O)cccc21", "note": "[Example 115, 4-(1-ethyl-1H-indol-4-ylamino)-2-(isopropylamino)pyrimidine-5-carboxamide]", "IC50": "100 to 1000"}, {"smiles": "COc1cccc(Nc2nc(N[C@H](CC3CC3)C(N)=O)ncc2C(N)=O)c1", "note": "[Example 63, (R)-2-((1-amino-3-cyclopropyl-1-oxopropan-2-yl)amino)-4-((3-methoxyphenyl)amino)pyrimidine-5-carboxamide]", "IC50": "100 to 1000"}, {"smiles": "NC(=O)c1cnc(N[C@H]2CCCC(F)(F)[C@H]2N)nc1Nc1cccc(-n2nccn2)c1", "note": "[Example 19]", "IC50": "100 to 1000"}, {"smiles": "CC[C@@H](Nc1ncc(C(N)=O)c(Nc2ccc3ccncc3c2)n1)C(N)=O", "note": "[Example 71, (R)-2-(1-amino-1-oxobutan-2-ylamino)-4-(isoquinolin-7-ylamino)pyrimidine-5-carboxamide]", "IC50": "10 to 100"}]}]}
